Patent US11046714B2, “2,2-difluorodioxolo A2A receptor antagonists” (Merck Sharp & Dohme Corp., priority 2013, dated 2021)

Molecular target: human A2A receptor (Homo sapiens (Human), UniProt P29274)
Assay: competition binding assay using Scintillation Proximity technology
Details: membranes from CHO-K1 cells expressing the human A2a receptor; 2.0 nM tritiated compound; Cheng-Prusoff
Description: The utility of the compounds in accordance with the present invention as A2A receptor antagonists may be readily determined without undue experimentation by methodologies well known in the art, including by a competition binding assay using Scintillation Proximity technology. Briefly, membranes from CHO-K1 cells expressing the human A2A receptor are incubated with a test compound at various concentrations, e.g., ranging from 3000 nM to 0.15 nM, in a reaction mixture also containing a tritiated form of 5-amino-7-[2-phenethyl]-2-(furan-2-yl)-7H-pyrazolo[4,3-e][1,2,4]triazolo[1,5-c]pyrimidine (the tritiated compound) and wheatgerm agglutin-coated yttrium silicate SPA beads at room temperature. The beads are then allowed to settle to the bottom of the wells, after which the membrane-associated radioactivity is determined by scintillation counting in a microplate reader. Ki values can be determined using the Cheng-Prusoff equation.
Thus, 1.0 μg of membranes from CHO-K1 cells expressing the human A2a receptor were incubated with a compound of the invention at concentrations ranging from 3000 nM to 0.15 nM in a reaction mixture also containing 2.0 nM of a tritiated form of 5-amino-7-[2-phenethyl]-2-(furan-2-yl)-7H-pyrazolo[4,3-e][1,2,4]triazolo[1,5-c]pyrimidine (the tritiated compound) and 100 μg of wheatgerm agglutin-coated yttrium silicate SPA beads for one hour at room temperature with agitation. The beads were then allowed to settle to the bottom of the wells for 1 hr, after which the membrane-associated radioactivity was determined by scintillation counting in a TopCount microplate reader. Ki values were determined using the Cheng-Prusoff equation.
Summary of Materials and Methods Used in A2a Activity Determination:
• Membranes from CHO-K1 cells expressing the human Adenosine2A receptor (Perkin-Elmer #RBHA2AM400UA). • The tritiated compound was prepared according to published methods. • Wheatgerm agglutinin-coated yttrium silicate SPA beads (GE Healthcare #RPNQ0023). Dilute to 25 mg/ml in Assay Buffer. • Assay Buffer: Dulbecco's calcium and magnesium free phosphate buffered saline+10 mM MgCl2 • Adenosine deaminase (ADA) from calf intestine, 10 mg/2 ml (Roche #10 102 105 001). • DMSO • A2a antagonist standard (9-chloro-1-(2-furanyl)-[1,2,4]triazolo[1,5-c]quinazolin-5-amine from Tocris Bioscience) Compound Dilution • Make eight 1:3 serial dilutions in 100% DMSO from a 3 mM compound stock. • Transfer 50 nL of compound into a 384-well OptiPlate (Perkin Elmer). • Typically, final concentrations of compound used in the assay ranged from 3000 nM to 0.152 nM. Radioisotope • Dilute a solution of the tritiated compound to 5.0 nM in assay buffer. This is a 2.5× solution. The final concentration in the assay is 2.0 nM. Calculate the concentration by counting two 5 μL aliquots. Membrane Preparation • Use 1.0 μg of membrane/well. Dilute membranes to 33 μg/mL in assay buffer. Treat with 20 μg/mL ADA for 15 minutes at room temperature to degrade endogenous adenosine. Membrane-Bead Mixture • Use 100 μg/well wheatgerm agglutinin-coated yttrium silicate SPA beads. • Mix ADA-treated membranes and SPA beads together for 30 min prior to assay. Assay Assembly • To the Perkin-Elmer Optiplate-384 containing the compound titration add 20 μL of 2.5× solution of the tritiated compound and 30 μL of the membrane-bead mixture. Incubate for one hour at room temperature with agitation. • Include total binding (assay buffer+1% DMSO) and non-specific binding (CGS 15943, 1 μM) wells. Counting • Allow the beads to settle for one hour. • Count in TopCount. Calculations • A curve fitting program (i.e., Prism, Activity Base, Chemcart) is used to determine the EC50. The Ki value is calculated using the Cheng-Prusoff equation. Ki=EC50/(1+(radioligand concentration/Kd))

Chain of human A2A receptor (P29274 whole entry): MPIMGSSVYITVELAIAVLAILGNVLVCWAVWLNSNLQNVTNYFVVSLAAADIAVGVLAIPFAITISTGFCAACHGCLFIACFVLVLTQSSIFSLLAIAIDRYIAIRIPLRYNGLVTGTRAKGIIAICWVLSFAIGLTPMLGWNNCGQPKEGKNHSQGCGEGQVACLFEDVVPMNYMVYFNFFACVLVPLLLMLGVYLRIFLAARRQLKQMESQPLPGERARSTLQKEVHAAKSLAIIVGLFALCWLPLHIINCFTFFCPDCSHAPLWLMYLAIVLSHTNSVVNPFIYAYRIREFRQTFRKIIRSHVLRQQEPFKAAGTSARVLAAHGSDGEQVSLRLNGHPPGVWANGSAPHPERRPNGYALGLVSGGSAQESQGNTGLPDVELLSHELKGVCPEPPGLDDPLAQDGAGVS

| Structure (SMILES) | Ki |
| --- | --- |
| CC1(F)CCCN(CCc2nc3c4ccc5c(c4nc(N)n3n2)OC(F)(F)O5)C1 (single isomer, unassigned) [Example 64, (R or S)-2,2-difluoro-8-[2-(3-fluoro-3-methylpiperidin-1-yl)ethyl][1,3] dioxolo[4,5-h][1,2,4]triazolo[1,5-c] quinazolin-5-amine] | 7.7 nM |
| CC1(F)CCCN(CCc2nc3c4ccc5c(c4nc(N)n3n2)OC(F)(F)O5)C1 (single isomer, unassigned) [Example 65, (R or S)-2,2-difluoro-8-[2-(3-fluoro-3-methylpiperidin-1-yl)ethyl][1,3] dioxolo[4,5-h][1,2,4]triazolo[1,5-c] quinazolin-5-amine] | 4.2 nM |
| Nc1nc2c3c(ccc2c2nc(CCN4CC5CC4C(F)(F)C5)nn12)OC(F)(F)O3 (single isomer, unassigned) [Example 66, (R or S)-8-[2-(6,6-difluoro-2-azabicyclo[2.2.1]hept-2-yl)ethyl]-2,2-difluoro[1,3]dioxolo[4,5-h][1,2,4] triazolo[1,5-c]quinazolin-5-amine] | 3 nM |
| Nc1nc2c3c(ccc2c2nc(CCN4CC5CC4C(F)(F)C5)nn12)OC(F)(F)O3 (single isomer, unassigned) [Example 67, (R or S)-8-[2-(6,6-difluoro-2-azabicyclo[2.2.1]hept-2-yl)ethyl]-2,2-difluoro[1,3]dioxolo[4,5-h][1,2,4] triazolo[1,5-c]quinazolin-5-amine] | 3.5 nM |
| CC1N(CCc2nc3c4ccc5c(c4nc(N)n3n2)OC(F)(F)O5)CCCC1(F)F (single isomer, unassigned) [Example 68, (R or S)-8-[2-(3,3-difluoro-2-methylpiperidin-1-yl)ethyl]-2,2-difluoro[1,3]dioxolo[4,5-h][1,2,4] triazolo[1,5-c]quinazolin-5-amine] | 1.2 nM |
| CC1N(CCc2nc3c4ccc5c(c4nc(N)n3n2)OC(F)(F)O5)CCCC1(F)F (single isomer, unassigned) [Example 69, (R or S)-8-[2-(3,3-difluoro-2-methylpiperidin-1-yl)ethyl]-2,2-difluoro[1,3]dioxolo[4,5-h][1,2,4] triazolo[1,5-c]quinazolin-5-amine] | 1.8 nM |
| Nc1nc2c3c(ccc2c2nc(CCN4CCCC(O)(C(F)(F)F)C4)nn12)OC(F)(F)O3 (single isomer, unassigned) [Example 70, (R or S)-1-(2-(5-amino-2,2-difluoro-[1,3]dioxolo[4,5-h][1,2,4]triazolo[1,5-c]quinazolin-8-yl)ethyl)-3-(trifluoromethyl)piperidin-3-ol] | 5.2 nM |
| Nc1nc2c3c(ccc2c2nc(CCN4CCCC(O)(C(F)(F)F)C4)nn12)OC(F)(F)O3 (single isomer, unassigned) [Example 71, (R or S)-1-(2-(5-amino-2,2-difluoro-[1,3]dioxolo[4,5-h][1,2,4]triazolo[1,5-c]quinazolin-8-yl)ethyl)-3-(trifluoromethyl)piperidin-3-ol] | 3.9 nM |
| Nc1nc2c3c(ccc2c2nc(CCN4CCCC(F)(C(F)(F)F)C4)nn12)OC(F)(F)O3 (single isomer, unassigned) [Example 72, (R or S)-2,2-difluoro-8-(2-(3-fluoro-3-(trifluoromethyl)piperidin-1-yl)ethyl)-[1,3]dioxolo[4,5-h][1,2,4]triazolo[1,5-c]quinazolin-5-amine] | 0.9 nM |
| Nc1nc2c3c(ccc2c2nc(CCN4CCCC(F)(C(F)(F)F)C4)nn12)OC(F)(F)O3 (single isomer, unassigned) [Example 73, (R or S)-2,2-difluoro-8-(2-(3-fluoro-3-(trifluoromethyl)piperidin-1-yl)ethyl)-[1,3]dioxolo[4,5-h][1,2,4]triazolo[1,5-c]quinazolin-5-amine] | 0.9 nM |

Second part, the compound after the results:

| Ki | Structure (SMILES) |
| --- | --- |
| 12 nM | C[C@H](Cc1nc2c3ccc4c(c3nc(N)n2n1)OC(F)(F)O4)N1CCCC(C)(F)C1 (single isomer, unassigned) [Example 85, 2,2-difluoro-8-{(2R)-2-[(3R or 3S)-3-fluoro-3-methylpiperidin-1-yl]propyl}[1,3]dioxolo[4,5-h][1,2,4]triazolo[1,5-c]quinazolin-5-amine] |
| 16 nM | C[C@H](Cc1nc2c3ccc4c(c3nc(N)n2n1)OC(F)(F)O4)N1CCCC(C)(F)C1 (single isomer, unassigned) [Example 86, 2,2-difluoro-8-{(2R)-2-[(3R or 3S)-3-fluoro-3-methylpiperidin-1-yl]propyl}[1,3]dioxolo[4,5-h][1,2,4]triazolo[1,5-c]quinazolin-5-amine] |
| 6.1 nM | C[C@@H](Cc1nc2c3ccc4c(c3nc(N)n2n1)OC(F)(F)O4)N1CCCC(C)(F)C1 (single isomer, unassigned) [Example 89, 2,2-difluoro-8-{(2S)-2-[(3R or 3S)-3-fluoro-3-methylpiperidin-1-yl]propyl}[1,3] dioxolo[4,5-h] [1,2,4]triazolo[1,5-c]quinazolin-5-amine] |
| 12 nM | C[C@@H](Cc1nc2c3ccc4c(c3nc(N)n2n1)OC(F)(F)O4)N1CCCC(C)(F)C1 (single isomer, unassigned) [Example 90, 2,2-difluoro-8-{(2S)-2-[(3R or 3S)-3-fluoro-3-methylpiperidin-1-yl]propyl}[1,3] dioxolo[4,5-h] [1,2,4]triazolo[1,5-c]quinazolin-5-amine] |
| 1.2 nM | CC(Cc1nc2c3ccc4c(c3nc(N)n2n1)OC(F)(F)O4)N1Cc2cccnc2C1 (single isomer, unassigned) [Example 91, 8-[(2R or 2S)-2-(5,7-dihydro-6H-pyrrolo[3,4-b]pyridin-6-yl)propyl]-2,2-difluoro[1,3]dioxolo[4,5-h][1,2,4]triazolo[1,5-c]quinazolin-5-amine] |
| 4 nM | CC(Cc1nc2c3ccc4c(c3nc(N)n2n1)OC(F)(F)O4)N1Cc2cccnc2C1 (single isomer, unassigned) [Example 92, 8-[(2R or 2S)-2-(5,7-dihydro-6H-pyrrolo[3,4-b]pyridin-6-yl)propyl]-2,2-difluoro[1,3]dioxolo[4,5-h][1,2,4]triazolo[1,5-c]quinazolin-5-amine] |
| 4.8 nM | CC(Cc1nc2c3ccc4c(c3nc(N)n2n1)OC(F)(F)O4)N1CC(F)(F)C1 (single isomer, unassigned) [Example 93, (R or S)-8-[2-(3,3-difluoroazetidin-1-yl)propyl]-2,2-difluoro[1,3] dioxolo[4,5-h][1,2,4]triazolo[1,5-c] quinazolin-5-amine] |
| 4.1 nM | CC(Cc1nc2c3ccc4c(c3nc(N)n2n1)OC(F)(F)O4)N1CC(F)(F)C1 (single isomer, unassigned) [Example 94, (R or S)-8-[2-(3,3-difluoroazetidin-1-yl)propyl]-2,2-difluoro[1,3] dioxolo[4,5-h][1,2,4]triazolo[1,5-c] quinazolin-5-amine] |
| 4.3 nM | CC(Cc1nc2c3ccc4c(c3nc(N)n2n1)OC(F)(F)O4)N1CCCC(F)(F)C1 (single isomer, unassigned) [Example 95, (R or S)-8-[2-(3,3-difluoropiperidin-1-yl)propyl]-2,2-difluoro[1,3] dioxolo[4,5-h][1,2,4]triazolo[1,5-c] quinazolin-5-amine] |
| 4.1 nM | CC(Cc1nc2c3ccc4c(c3nc(N)n2n1)OC(F)(F)O4)N1CCCC(F)(F)C1 (single isomer, unassigned) [Example 96, (R or S)-8-[2-(3,3-difluoropiperidin-1-yl)propyl]-2,2-difluoro[1,3] dioxolo[4,5-h][1,2,4]triazolo[1,5-c] quinazolin-5-amine] |
